Calls of active or inactive are those of the source.
Experiments:
[1] = molecular target: T1, Mitochondrial peptide methionine sulfoxide reductase (Bos taurus, UniProt P54149); test: Absorbance-based biochemical high throughput dose response assay for activators of Methionine sulfoxide reductase A (MsrA).; type: functional
T1 sequence (P54149 whole entry): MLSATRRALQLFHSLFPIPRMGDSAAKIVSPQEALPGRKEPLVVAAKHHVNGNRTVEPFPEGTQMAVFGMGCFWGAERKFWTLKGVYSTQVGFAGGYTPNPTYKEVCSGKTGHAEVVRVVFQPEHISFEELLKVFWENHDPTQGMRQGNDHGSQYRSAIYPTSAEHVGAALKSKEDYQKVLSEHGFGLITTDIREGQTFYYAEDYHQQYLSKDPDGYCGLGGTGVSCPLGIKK

HEK293 = test: inhibitors of LMP1-driven NF-kB reporter, dose response, cell-based, HEK293, luciferase, cherry-pick (AID 588343); type: functional; details: Homo sapiens
P388/ADR = test: cells; type: functional; details: Mus musculus
SN12K1 = test: cells; type: functional; details: Homo sapiens
P388 = test: cells; type: functional; details: Mus musculus
[2] = molecular target: T2, RNA-binding protein pos-1 (Caenorhabditis elegans, UniProt G5EF15); test: inhibitors of POS-1/mex-3 RNA binding, dose response, biochemical, fluorescence polarization (AID 1964);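 further: purified POS-1 fused to maltose binding protein made in E. coli; potency of compounds blocking POS-1 binding to fluorescent RNA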
T2 sequence (G5EF15 whole entry): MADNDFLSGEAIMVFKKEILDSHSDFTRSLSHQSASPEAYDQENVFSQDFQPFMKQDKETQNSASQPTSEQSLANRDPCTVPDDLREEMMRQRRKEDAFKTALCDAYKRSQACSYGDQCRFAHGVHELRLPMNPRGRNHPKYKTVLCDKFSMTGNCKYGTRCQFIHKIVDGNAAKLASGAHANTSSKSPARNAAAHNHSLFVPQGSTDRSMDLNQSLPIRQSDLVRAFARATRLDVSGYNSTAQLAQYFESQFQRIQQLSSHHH

[3] = molecular target: T3, Zinc finger protein mex-5 (Caenorhabditis elegans, UniProt Q9XUB2); test: MEX-5/TCR-2 RNA interaction inhibitors, dose response, biochemical, C. elegans, fluorescence polarization (AID 1960)
T3 sequence (Q9XUB2 whole entry): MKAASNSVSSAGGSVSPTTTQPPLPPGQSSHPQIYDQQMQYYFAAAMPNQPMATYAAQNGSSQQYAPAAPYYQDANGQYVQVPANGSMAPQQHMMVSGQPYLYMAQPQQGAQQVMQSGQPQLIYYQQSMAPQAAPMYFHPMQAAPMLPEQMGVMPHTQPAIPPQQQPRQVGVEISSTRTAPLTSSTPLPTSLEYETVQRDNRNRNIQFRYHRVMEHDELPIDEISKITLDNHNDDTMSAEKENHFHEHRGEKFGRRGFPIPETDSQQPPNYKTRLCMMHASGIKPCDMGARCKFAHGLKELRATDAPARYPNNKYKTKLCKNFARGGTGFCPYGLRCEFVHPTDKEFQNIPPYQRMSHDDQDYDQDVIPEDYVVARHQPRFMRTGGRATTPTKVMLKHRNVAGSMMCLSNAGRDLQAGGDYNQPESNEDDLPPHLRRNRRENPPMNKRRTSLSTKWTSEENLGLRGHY

[4] = molecular target: T4, Carboxy-terminal domain RNA polymerase II polypeptide A small phosphatase 1 (Homo sapiens, UniProt Q9GZU7); test: inhibitors of CTDSP1, concentration-response testing, biochemical assay, absorbance-based, actives from ultra-high-throughput screening (AID 540297); type: functional
T4 sequence (Q9GZU7 whole entry): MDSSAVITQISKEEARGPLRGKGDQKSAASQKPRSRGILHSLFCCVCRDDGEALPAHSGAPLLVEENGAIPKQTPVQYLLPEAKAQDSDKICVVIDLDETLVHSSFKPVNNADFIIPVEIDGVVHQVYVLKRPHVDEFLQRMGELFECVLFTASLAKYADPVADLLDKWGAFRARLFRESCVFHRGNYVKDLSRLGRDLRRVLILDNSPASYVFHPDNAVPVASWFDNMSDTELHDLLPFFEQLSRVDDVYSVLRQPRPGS

[5] = molecular target: T5, Histone-lysine N-methyltransferase NSD2 (Homo sapiens, UniProt O96028); type: biochemical
T5 sequence (O96028 whole entry): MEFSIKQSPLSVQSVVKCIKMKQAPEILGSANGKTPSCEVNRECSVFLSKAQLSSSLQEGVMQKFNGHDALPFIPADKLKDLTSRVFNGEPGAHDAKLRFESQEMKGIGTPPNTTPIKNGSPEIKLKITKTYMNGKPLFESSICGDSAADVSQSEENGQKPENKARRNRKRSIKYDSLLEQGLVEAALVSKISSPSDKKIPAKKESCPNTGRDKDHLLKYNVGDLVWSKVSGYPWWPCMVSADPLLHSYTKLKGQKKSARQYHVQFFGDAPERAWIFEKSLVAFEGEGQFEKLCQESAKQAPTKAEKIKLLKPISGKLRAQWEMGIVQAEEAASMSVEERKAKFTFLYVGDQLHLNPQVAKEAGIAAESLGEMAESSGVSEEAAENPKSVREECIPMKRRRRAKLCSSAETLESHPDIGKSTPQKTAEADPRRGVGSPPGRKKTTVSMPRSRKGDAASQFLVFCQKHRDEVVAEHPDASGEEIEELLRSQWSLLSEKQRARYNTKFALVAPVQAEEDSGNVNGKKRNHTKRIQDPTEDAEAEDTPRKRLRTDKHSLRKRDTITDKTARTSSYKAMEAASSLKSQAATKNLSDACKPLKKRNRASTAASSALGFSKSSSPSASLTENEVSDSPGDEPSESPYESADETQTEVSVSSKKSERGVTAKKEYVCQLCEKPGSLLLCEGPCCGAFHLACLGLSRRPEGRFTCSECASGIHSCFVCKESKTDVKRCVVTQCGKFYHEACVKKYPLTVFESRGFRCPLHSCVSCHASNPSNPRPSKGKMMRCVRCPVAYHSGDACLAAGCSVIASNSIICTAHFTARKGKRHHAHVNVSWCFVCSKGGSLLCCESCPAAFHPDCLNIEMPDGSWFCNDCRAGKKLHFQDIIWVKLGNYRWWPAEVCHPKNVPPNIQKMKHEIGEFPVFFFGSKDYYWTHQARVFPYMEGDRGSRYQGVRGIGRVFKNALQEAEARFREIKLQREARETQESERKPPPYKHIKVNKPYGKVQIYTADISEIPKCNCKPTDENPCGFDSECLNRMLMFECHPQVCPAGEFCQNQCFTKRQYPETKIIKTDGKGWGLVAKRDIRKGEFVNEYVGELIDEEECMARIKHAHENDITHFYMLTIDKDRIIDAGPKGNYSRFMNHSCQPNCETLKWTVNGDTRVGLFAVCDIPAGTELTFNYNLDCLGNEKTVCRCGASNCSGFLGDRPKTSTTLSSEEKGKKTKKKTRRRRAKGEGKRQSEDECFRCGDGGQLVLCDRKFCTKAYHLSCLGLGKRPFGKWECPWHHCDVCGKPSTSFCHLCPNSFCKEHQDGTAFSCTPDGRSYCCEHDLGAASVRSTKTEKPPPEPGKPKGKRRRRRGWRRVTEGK

Escherichia coli = test: microbe, parasite or virus in culture
[6] = molecular target: T6, Neuropeptide Y receptor type 1 (Homo sapiens, UniProt P25929); type: functional;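 further: HEK293 cells with a CNG channel challenged with NPY then isoproterenol; potency as antagonist that reverses NPY suppression of cAMP signal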
T6 sequence (P25929 whole entry): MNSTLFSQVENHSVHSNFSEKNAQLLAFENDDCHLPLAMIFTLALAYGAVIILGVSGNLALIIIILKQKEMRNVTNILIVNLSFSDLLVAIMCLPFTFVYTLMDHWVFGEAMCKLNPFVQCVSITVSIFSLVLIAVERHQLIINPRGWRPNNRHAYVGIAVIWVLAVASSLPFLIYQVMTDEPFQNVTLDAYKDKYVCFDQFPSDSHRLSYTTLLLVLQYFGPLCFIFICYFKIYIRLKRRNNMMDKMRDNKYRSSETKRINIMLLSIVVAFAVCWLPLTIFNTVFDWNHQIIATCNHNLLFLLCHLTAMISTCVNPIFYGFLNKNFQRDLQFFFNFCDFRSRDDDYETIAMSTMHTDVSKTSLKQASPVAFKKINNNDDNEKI

[7] = molecular target: T7, Neuropeptide Y receptor type 2 (Homo sapiens, UniProt P49146); type: functional, cell-based;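 further: HEK293 cells expressing the receptor and a CNG channel; stimulus was NPY near EC95 followed by isoproterenol to raise cAMP; antagonist potency measured as restoring cAMP signal that NPY suppresses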
T7 sequence (P49146 whole entry): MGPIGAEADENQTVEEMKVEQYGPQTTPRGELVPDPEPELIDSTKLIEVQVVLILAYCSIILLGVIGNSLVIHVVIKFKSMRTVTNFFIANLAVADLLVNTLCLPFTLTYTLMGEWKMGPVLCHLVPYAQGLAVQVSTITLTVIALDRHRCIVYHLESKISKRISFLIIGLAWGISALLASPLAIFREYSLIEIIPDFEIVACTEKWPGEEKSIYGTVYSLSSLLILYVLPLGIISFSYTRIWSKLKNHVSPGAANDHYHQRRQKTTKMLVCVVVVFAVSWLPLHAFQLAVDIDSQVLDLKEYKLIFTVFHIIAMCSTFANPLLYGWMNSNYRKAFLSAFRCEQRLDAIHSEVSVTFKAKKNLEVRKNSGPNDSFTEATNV

Cysteine protease ATG4B = molecular target: T8, Cysteine protease ATG4B (Homo sapiens, UniProt Q9Y4P1); type: functional;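 further: Fluorescence-based dose-response confirmation assay measuring inhibition of ATG4B activity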
T8 sequence (Q9Y4P1 whole entry): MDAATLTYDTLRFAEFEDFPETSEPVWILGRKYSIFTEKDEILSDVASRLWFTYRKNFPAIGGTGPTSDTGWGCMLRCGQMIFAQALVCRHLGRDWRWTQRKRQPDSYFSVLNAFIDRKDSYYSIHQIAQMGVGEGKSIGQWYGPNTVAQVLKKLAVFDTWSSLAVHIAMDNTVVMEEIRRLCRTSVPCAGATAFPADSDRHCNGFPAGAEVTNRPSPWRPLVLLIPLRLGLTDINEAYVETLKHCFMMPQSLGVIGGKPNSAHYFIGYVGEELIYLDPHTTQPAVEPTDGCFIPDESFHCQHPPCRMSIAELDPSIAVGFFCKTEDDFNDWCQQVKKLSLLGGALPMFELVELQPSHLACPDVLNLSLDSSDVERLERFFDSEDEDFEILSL

Phospholipase A2 = Phospholipase A2 (Homo sapiens, UniProt P04054); type: functional;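 further: confirmatory dose-response counterscreen on phospholipase A2, testing hits that came from an ultra-high-throughput screen for ATG4B inhibitors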
[8] = molecular target: T9, Endoribonuclease toxin MazF (Escherichia coli K-12, UniProt P0AE70); test: MazF toxin RNase activators, dose response, biochemical, fluorescence, single-stranded RNA substrate, uHTS hits (AID 588481); type: functional
T9 sequence (P0AE70 whole entry): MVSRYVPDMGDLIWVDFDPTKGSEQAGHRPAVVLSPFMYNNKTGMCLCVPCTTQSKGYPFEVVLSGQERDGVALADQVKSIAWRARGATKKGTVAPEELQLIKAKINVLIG

[9] = molecular target: T9, Endoribonuclease toxin MazF; test: fluorescent RNA oligo signal without MazF, dose response, counter-screen for MazEF activator project, biochemical, fluorescence, single-stranded RNase substrate (AID 588502); type: functional
[10] = molecular target: DNA dC->dU-editing enzyme APOBEC-3A (Homo sapiens, UniProt P31941); test: SAR analysis of small molecule inhibitors of APOBEC3A DNA Deaminase via a fluorescence-based single-stranded DNA deaminase assay - Set 2.; type: functional; details: read-out: IC50_Mean
[11] = molecular target: DNA dC->dU-editing enzyme APOBEC-3G (Homo sapiens, UniProt Q9HC16); test: SAR analysis of small molecule inhibitors of APOBEC3G DNA Deaminase via a fluorescence-based single-stranded DNA deaminase assay - Set 2.; type: functional; details: read-out: IC50_Mean
Sequence of DNA dC->dU-editing enzyme APOBEC-3G (Q9HC16 whole entry): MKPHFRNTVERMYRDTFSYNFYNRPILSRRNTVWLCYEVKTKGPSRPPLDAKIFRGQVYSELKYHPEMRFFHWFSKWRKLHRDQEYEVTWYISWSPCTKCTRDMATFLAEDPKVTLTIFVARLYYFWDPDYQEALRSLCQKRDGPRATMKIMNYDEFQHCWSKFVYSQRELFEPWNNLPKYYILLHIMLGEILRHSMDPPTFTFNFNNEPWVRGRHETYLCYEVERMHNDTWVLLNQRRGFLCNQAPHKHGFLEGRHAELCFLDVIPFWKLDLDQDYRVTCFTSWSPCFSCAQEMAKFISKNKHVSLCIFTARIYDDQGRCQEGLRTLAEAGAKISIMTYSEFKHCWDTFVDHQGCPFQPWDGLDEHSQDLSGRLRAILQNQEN

Sequence of Phospholipase A2 (P04054 whole entry): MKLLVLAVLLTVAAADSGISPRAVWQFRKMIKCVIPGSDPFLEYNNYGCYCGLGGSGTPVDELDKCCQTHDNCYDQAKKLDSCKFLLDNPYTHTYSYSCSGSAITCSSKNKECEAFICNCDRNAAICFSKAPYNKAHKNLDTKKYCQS
Sequence of DNA dC->dU-editing enzyme APOBEC-3A (P31941 whole entry): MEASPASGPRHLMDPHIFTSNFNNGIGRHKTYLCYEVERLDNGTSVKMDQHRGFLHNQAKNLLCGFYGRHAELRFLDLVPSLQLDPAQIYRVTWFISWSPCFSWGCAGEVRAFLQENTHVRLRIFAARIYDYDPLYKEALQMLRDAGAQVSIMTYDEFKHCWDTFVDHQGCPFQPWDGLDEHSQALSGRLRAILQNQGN

NC(=S)NN=C1CSSC1
EC50 [1]: 12.9 µM (inactive)

COc1ccc(-n2c(C)c([N+](=O)[O-])c3ccc(O)c(CN(C)C)c32)cc1
AC50 (HEK293): 2.53 µM (active)

O=C(NCc1ccccc1)c1cccc(COc2ccc3c(c2)CCC3)c1
AC50 (HEK293): 4.83 µM (active)

COc1cc([C@@H]2c3cc4c(cc3C[C@H]3COC(=O)[C@@H]32)OCO4)cc(OC)c1OC [DESOXYPODOPHYLLOTOXIN]
GI50 (P388/ADR): 0.0108 µM (active)
GI50 (SN12K1): 0.00596 µM (active)
GI50 (P388): 0.005 µM (active)

CCOc1cccc(=O)c2c(C)n(-c3ccc(C(=O)O)cc3)c(C)c12
EC50 [2]: 41.3 µM (active)
EC50 [3]: 29.6 µM (active)
IC50 [4]: 4.54 µM (active)
AC50 [5]: 17.2 µM (active)
AC50 (Escherichia coli): > 150 µM (inactive)

CC(Sc1ccc(Cl)cc1)C(=O)Nc1ccccc1-c1ccccc1 (centres undefined)
IC50 [6]: 10.3 µM (not active)
IC50 [7]: 4.77 µM (active)
IC50 (Cysteine protease ATG4B): 49.7 µM (inactive)
IC50 (Phospholipase A2): 4.74 µM (active)

CCSc1nnc(N2C(=O)C(O)=C(C(=O)c3ccco3)C2c2cccc(OC)c2)s1 (centres undefined)
EC50 [8]: > 99 µM (inactive)
EC50 [9]: > 99 µM (inactive)

CN1c2c(O)nc(N)nc2NCC1CCNc1ccc(C(=O)NC(CCC(=O)O)C(=O)O)cc1 (centres undefined)
GI50 (P388/ADR): 2.49 µM (inactive)
GI50 (SN12K1): 5.5 µM (inactive)
GI50 (P388): 4.5 µM (inactive)

N=c1c[n+](N2CCOCC2)[n-]o1
EC50 [8]: 30.3 µM (inactive)
EC50 [9]: > 99 µM (inactive)

COc1cc(OC)cc(-c2nc3ccccc3c(=O)n2OC(=O)c2ccccc2C)c1
IC50 (Cysteine protease ATG4B): 21.4 µM (inactive)
IC50 (Phospholipase A2): 7.51 µM (active)

CN(Cc1ccccc1)C(=O)c1cc2ncc(Br)cn2n1
IC50 [10]: 34.5 µM (inactive)
IC50 [11]: 77.8 µM (inactive)

CCCCCCNC(=O)C(C)C1CCC2(C)C=CC(=O)C(C)=C2C1O (centres undefined)
GI50 (P388/ADR): > 42.3 µM (inactive)
GI50 (SN12K1): > 100 µM (inactive)
GI50 (P388): 62.5 µM (inactive)

From ChEMBL document CHEMBL1201862, “PubChem BioAssay data set” (2004)
